Results from article PMC9271792 (Frontiers in Endocrinology, 2022).
Read-outs that look alike come from different tables or passages of the source.

How the values were obtained:
[1] = test system: IGF-1R; conditions: cited from earlier work
[2] = test system: IR; conditions: compared to insulin; ref [20], [21]; cited from earlier work
[3] = test system: IR; conditions: cited from earlier work
From the text: This is similar to the poorly mitogenic S597 peptide, which also promoted slowe ...

[4] = test system: IR; conditions: ref [20]; cited from earlier work
[5] = test system: mitogenic signalling; conditions: ref [20], cited from earlier work
[6] = molecular target: T1, IGF-1R (Homo sapiens, UniProt P08069); assay: Kinase receptor activation assay (KIRA), IGF-1R; assay type: cell-based; conditions: 10 min stimulation, P6 cells
T1 construct: expressed in transfected cells; host or cells: P6 cells (BALB/c3T3 mouse fibroblasts overexpressing human IGF-1R); Triton X-100 lysate captured on anti-IGF-1R antibody 24-31

[7] = test system: Akt / GSK-3β / S6 phosphorylation in L6 IR-A cells; assay: Western blot time-course, PI3K/Akt pathway, L6 IR-A; assay type: cell-based, rat cells; human IR-A; conditions: 10 nM; for time to optimal phosphorylation of Akt (Ser473, Thr308) and GSK-3β: maximal up to t = 30 min
Experimental: (§2) R/^-IR-B (80,000 cells/well) or L6 IR-A cells (240,000 cells/well) were seeded in 6-well plates and allowed to grow to confluence (~ 48 hours). Prior to stimulation, cells were serum starved in SFM/1% BSA for 4 h. […] Lysates were scraped from the well, spun at 13,000 rpm for 3 min at 0°C to remove cell debris and stored at -80°C. Lysate protein concentrations were quantified using Bio-Rad DC™ Protein Assay and 20μg of each sample was separated in 10% glycine gels under reducing conditions. Transferred blots were blocked for 1 h at room temperature in TBST containing 3% BSA and probed with primary antibodies (Pathscan Antibody, pAkt(Thr308), pGSK(Ser9), pAS160(Thr642)) in blocking solution (TBST containing 3% BSA) overnight at 4°C. All blots were also probed with anti-β-tubulin as a loading control. Blots were washed six times for 5 min each in TBST then probed with either HRP-conjugated (dose-response) or fluorophore-conjugated (time-course) secondary antibodies for 1 hour at room temperature. The washing was then repeated.
(§3) Dose response blots were developed in ECL reagent according to manufacturer’s instruction and imaged in Fujiflim LAS-4000 Luminescent Image Analyzer. Time course blots were imaged with an Odyssey® CLx Imaging System. All blots were performed at least three times. All data were analysed with LI-COR Image Studio™ software and each band intensity was normalized to tubulin of its respective lane.

[8] = test system: ERK 1/2 / p90RSK phosphorylation in L6 IR-A cells; assay: Western blot time-course, MAPK pathway, L6 IR-A; assay type: cell-based, rat cells; human IR-A; conditions: 10 nM, then reducing between t = 10 – 30 min
Experimental: as §2, §3

[9] = test system: IR-A; assay: IR-A receptor internalization; assay type: cell-based, human; conditions: 10 nM; for IR-A internalization (in words): 2 hours post-stimulation; for IR-A remaining on the cell surface: within 2 h, % of surface/total receptor normalised to SFM t = 0
Experimental: All data are the mean ± S.E.M. n = at least 3 independent experiments. Error bars are shown when greater than the size of the symbols.
(§1) Assays were performed in triplicate in at least three independent experiments.

[10] = molecular target: T1, IGF-1R; assay: Competition binding assay, europium-labelled IGF-I, IGF-1R
Experimental: Results are expressed as a percentage of binding in the absence of competing ligand (%B/B0). […] All data are the mean ± S.E.M. n = at least 3 independent experiments. Error bars are shown when greater than the size of the symbols.
Human IR isoform A, isoform B and IGF-1R were solubilized from R^-IR-A, R^-IR-B and P6 cells, respectively. Briefly, cells were serum starved in serum-free medium (SFM) containing 1% (w/v) BSA for 4 h before lysis in ice-cold lysis buffer (20 mM HEPES, 150 mM NaCl, 1.5mM MgCl2, 10% (v/v) glycerol, 1% (v/v) Triton X-100, 1mM EGTA, and 1 mM phenylmethylsulfonyl fluoride, pH 7.5) for 1 h at 4°C. Lysates were centrifuged for 10 min at 2,200g, and then 100 µL of lysate was added per well to a white Greiner Lumitrac 600 96-well plate (16 h at 4°C) previously coated with anti-IR antibody 83-7 or anti-IGF-1R antibody 24-31 (250 ng/well in bicarbonate buffer, pH 9.2). […] Wells were washed with 20 mM Tris, pH 7.4, 150 mM NaCl (TBS) and 0.1% (v/v) Tween 20 (TBST). Then 100 µl/well DELFIA enhancement solution (PerkinElmer Life Sciences) was added. After 10 min, time-resolved fluorescence was measured using 340-nm excitation and 612-nm emission filters with a BMG Lab Technologies Polarstar fluorometer (Mornington, Australia). Assays were performed in triplicate in at least three independent experiments.

[11] = test system: IR-B; assay: Kinase receptor activation assay (KIRA), IR-B; assay type: cell-based, human; conditions: 10 min stimulation, Eu-PY20 detection
[12] = test system: L6 rat skeletal myoblasts overexpressing human IR-A (L6 IR-A cells); assay: DNA synthesis assay (EdU incorporation); assay type: cell-based; conditions: 18 h, equipotent within fold stated
Experimental: as §1

[13] = test system: C57BL6 male mice; assay: Insulin tolerance test; assay type: in vivo, mouse; conditions: 0.75 IU/kg ip, chow fed mice, non-fasting, 2 hours post-treatment
[14] = molecular target: T2, IR isoform B (IR-B) (Homo sapiens, UniProt P06213); conditions: compared to insulin; ref [21]–[23], [32]; cited from earlier work
T2 construct: expressed in transfected cells; host or cells: R-IR-B cells (IGF-1R knockout mouse embryonic fibroblasts over-expressing human IR-B); Triton X-100 lysate captured on anti-IR antibody 83-7
T2 sequence (P06213 28-758 limits assumed): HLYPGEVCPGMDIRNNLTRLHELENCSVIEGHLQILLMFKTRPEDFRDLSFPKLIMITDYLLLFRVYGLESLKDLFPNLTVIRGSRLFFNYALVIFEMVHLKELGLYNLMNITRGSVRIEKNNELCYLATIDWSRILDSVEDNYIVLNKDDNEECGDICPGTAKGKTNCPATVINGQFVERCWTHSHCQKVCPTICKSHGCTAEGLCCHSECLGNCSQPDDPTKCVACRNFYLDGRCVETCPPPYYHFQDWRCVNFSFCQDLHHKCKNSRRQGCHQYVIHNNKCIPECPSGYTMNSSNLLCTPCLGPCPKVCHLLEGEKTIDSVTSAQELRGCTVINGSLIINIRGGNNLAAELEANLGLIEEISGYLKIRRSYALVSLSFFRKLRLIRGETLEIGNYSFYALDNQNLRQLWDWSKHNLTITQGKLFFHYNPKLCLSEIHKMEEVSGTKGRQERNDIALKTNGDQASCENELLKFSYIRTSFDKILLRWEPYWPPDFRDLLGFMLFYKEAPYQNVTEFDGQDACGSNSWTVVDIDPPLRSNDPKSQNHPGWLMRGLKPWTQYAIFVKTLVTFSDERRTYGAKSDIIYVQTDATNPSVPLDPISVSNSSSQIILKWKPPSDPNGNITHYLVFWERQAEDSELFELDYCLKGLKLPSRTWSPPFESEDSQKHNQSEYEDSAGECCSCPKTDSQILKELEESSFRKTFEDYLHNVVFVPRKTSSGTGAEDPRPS
T2 sequence (P06213 763-1382 partner limits assumed): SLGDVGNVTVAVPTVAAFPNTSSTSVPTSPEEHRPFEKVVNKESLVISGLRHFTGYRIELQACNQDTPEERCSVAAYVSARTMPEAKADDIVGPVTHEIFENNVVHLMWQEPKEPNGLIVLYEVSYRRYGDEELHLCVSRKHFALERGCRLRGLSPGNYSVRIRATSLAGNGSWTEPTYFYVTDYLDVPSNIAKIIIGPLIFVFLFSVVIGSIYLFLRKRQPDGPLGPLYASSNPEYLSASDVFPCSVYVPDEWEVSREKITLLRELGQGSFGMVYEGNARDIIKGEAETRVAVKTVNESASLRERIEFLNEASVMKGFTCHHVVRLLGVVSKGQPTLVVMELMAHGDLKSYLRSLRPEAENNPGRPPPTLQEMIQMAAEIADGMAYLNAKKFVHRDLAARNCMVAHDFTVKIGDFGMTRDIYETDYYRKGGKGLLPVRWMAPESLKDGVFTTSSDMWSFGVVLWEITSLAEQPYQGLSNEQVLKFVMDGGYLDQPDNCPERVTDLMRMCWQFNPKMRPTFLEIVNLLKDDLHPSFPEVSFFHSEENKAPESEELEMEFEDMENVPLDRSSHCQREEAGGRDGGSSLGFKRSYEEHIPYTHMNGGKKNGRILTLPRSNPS

[15] = molecular target: T1, IGF-1R; conditions: % of native insulin; ref [21], [23]; cited from earlier work
[16] = molecular target: T3, IR isoform A (IR-A) (Homo sapiens, UniProt P06213); conditions: compared to insulin; ref [21]–[23], [32]; cited from earlier work
T3 construct: expressed in transfected cells; host or cells: R-IR-A cells (IGF-1R knockout mouse embryonic fibroblasts over-expressing human IR-A); Triton X-100 lysate captured on anti-IR antibody 83-7
T3 sequence (P06213 28-1370 isoform P06213-2 limits assumed): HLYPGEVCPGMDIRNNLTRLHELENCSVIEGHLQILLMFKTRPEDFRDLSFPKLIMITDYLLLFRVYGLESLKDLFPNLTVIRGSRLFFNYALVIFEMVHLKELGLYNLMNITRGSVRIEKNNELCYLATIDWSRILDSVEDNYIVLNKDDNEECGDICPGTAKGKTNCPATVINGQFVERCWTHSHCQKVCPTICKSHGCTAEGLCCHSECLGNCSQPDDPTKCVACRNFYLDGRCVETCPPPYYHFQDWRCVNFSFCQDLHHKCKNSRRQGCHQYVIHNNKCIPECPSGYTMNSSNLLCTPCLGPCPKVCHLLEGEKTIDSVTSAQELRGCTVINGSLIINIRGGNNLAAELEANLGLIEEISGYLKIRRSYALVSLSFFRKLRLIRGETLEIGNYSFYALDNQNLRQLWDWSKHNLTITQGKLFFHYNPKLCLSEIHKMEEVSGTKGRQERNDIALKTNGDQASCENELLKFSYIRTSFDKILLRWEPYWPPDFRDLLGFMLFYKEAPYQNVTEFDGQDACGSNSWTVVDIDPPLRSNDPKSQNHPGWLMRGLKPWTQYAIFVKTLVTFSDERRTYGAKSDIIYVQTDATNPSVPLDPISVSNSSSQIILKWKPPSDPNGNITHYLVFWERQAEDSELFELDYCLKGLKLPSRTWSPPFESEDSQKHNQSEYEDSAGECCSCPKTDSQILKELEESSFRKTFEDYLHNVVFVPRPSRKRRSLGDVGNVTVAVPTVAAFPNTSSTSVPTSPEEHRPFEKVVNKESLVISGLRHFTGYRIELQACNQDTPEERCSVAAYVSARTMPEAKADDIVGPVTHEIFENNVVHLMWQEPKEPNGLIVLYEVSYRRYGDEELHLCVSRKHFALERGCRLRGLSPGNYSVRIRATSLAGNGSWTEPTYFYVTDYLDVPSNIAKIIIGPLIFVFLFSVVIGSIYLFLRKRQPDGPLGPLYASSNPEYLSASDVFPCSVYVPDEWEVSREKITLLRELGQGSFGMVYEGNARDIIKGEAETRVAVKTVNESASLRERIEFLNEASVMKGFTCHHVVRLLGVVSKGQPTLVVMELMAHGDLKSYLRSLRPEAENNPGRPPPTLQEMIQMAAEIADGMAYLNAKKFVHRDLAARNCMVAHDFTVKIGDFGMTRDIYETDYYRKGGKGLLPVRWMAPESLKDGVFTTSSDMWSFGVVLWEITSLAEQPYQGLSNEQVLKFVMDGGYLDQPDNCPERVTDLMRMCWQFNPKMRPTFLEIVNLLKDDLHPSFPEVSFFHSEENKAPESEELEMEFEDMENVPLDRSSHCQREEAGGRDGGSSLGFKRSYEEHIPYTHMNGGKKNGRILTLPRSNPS
T3 sequence (P06213 763-1382 partner limits assumed): as the sequence (P06213 763-1382 partner limits assumed) above

[17] = test system: insulin receptor isoform A (IR-A); conditions: compared to native insulin; ref [21]; cited from earlier work

## HisB10Asp insulin [insulin X10]
[1]; compared to insulin, ref [20], [21]
  IGF-1R binding affinity (in words): increased binding affinity for the growth-promoting insulin-like growth factor receptor 1 (IGF-1R)
[2]
  rate of dissociation from the IR (in words): reduced rate of dissociation from the IR compared to insulin
[3]; compared to insulin, ref [32]
  phosphorylation of IR-A Tyr960, Tyr1146 and Tyr1322 (in words): increased phosphorylation of IR-A Tyr960, Tyr1146 and Tyr1322 compared to insulin
[3]; ref [20]
  phosphorylation of the IR (in words): sustained phosphorylation of the IR
[4]
  receptor internalization (in words): increased rate of receptor internalization
[5]
  mitogenic signalling (in words): enhanced mitogenic signalling

## human insulin
[6]
  IGF-1R activation (in words): equipotent but poorly activated the IGF-1R
[7]; 0–30 min, p-Akt Ser473, p-Akt Thr308, p-GSK3β, p-S6
  kinetics of activation of the PI3K/Akt pathway (in words): essentially the same
[7]
  time to optimal phosphorylation of Akt (Ser473, Thr308) and GSK-3β: ≤ 20 s
[8]
  time to maximal phosphorylation of ERK1/2 and p90RSK: 10 min
[9]
  IR-A internalization (in words): rapidly induced receptor internalization post-stimulation (evident within 10 min)
  IR-A remaining on the cell surface: 60%

## insulin glargine
[10]; % of native insulin
  IGF-1R affinity compared to native insulin: 480%
[10]; competition for europium-labelled IGF-I, solubilized receptor from P6 cells, 16 h at 4°C, mean ± S.E.M., n = 3 or more
  IC50: 6.71 ± 3.9 nM
[11]
  IR-B activation (in words): potency similar to native insulin
[12]
  DNA synthesis, potency difference from native insulin: ≤ 2 fold
[13]
  blood glucose lowering (in words): no statistical difference
[7]
  time to optimal phosphorylation of Akt (Ser473, Thr308) and GSK-3β: ≤ 20 s
[8]
  time to maximal phosphorylation of ERK1/2 and p90RSK: 10 min
[9]
  IR-A internalization (in words): rapidly induced receptor internalization post-stimulation (evident within 10 min)
  IR-A remaining on the cell surface: 60%
[14]
  IR-B binding, literature range: 50-85%
[15]
  IGF-1R affinity, literature range: 460–650%
[16]
  IR-A binding, literature range: 40-86%
[1]; compared to native insulin, ref [22]
  IGF-1R binding affinity (in words): binds to the IGF-1R with higher affinity
[5]; compared to native insulin, [23]
  mitogenic cell signalling (in words): equipotent in promoting mitogenic cell signalling
[17]
  IR-A dissociation kinetics (in words): dissociation kinetics do not differ from native insulin
